Measurements taken from US20090325904A1, “MALEIC ACID MONOSALT OF ANTIVIRAL AGENT AND PHARMACEUTICAL COMPOSITION CONTAINING THE SAME” (LG Life Sciences Ltd., priority 2007, published 2009).
Values after ≈ are worked out from the molar mass of the structure shown. Where two headings read alike, the source gives them in different places.

Tests used:
[1] = Stability under heat and moisture, 40°C/75% RH (residual content by HPLC); format: physicochemical
Description: (§1) Contents of the free base of 3-[({1-[(2-amino-9H-purin-9-yl)methyl]cyclopropyl}oxy)methyl]-8,8-dimethyl-3,7-dioxo-2,4,6-trioxa-3λ5-phosphanon-1-yl-pivalate and salts thereof were measured by high performance liquid chromatography (HPLC). The specific measuring conditions are fisted below:
After 1, 4 and 8 weeks, 5 mg of each sample was taken, dissolved in a solvent mixture of tetrahydrofuran/water (1/1, v/v), and analyzed by HPLC.

[2] = Stability at 60°C (residual content by HPLC); settings: for residual content: 60°C (about 4% RH)
Description: as §1
After 1 or 2, 4 and 8 weeks, each sample in the glass vial was taken, dissolved in a solvent mixture of tetrahydrofuran/water (1/1, v/v), and analyzed by HPLC.

[3] = Solubility test at various pH; format: physicochemical; settings: for solubility at 1.5 h: phosphate buffer / phosphoric acid solution, aqueous buffer, thermodynamic from solid
Description: 5˜23 mg each of the maleic acid monosalt of the Example and the free base of Comparative Example 1 was placed into a glass bottle. 500 μl each of the various phosphate buffer solution and phosphoric acid solution having a specific pH value was added thereto. The glass bottle was placed in water to maintain a constant temperature of 25° C., and the mixture was stirred for 1.5 h. After filtration, the content in the filtrate was analyzed by HPLC, and the pH of the solution was measured. The measured pH values and the solubilities of the maleic acid monosalt and the free base are represented in the following Table 3.

hepatitis B virus = assay: In vitro anti-HBV activity, HBV DNA by real-time PCR in HepG2.2.15 culture medium; format: cell-based
Description: (§2) The hepatitis B virus-producing cell line, HepG2.2.15 (M. A. Shels, et al., Proc. Natl. Acad. Sci. USA 84, 1005 (1987)), was cultured in DMEM (Dulbecco's Modified Eagle Media; Life Technologies) containing 10% FBS (Fetal Bovine Serum), 1% ABAM (Antibiotic-Antimycotic) and Geneticin whose final concentration was measured as 400 μg/ml. The cells were cultured to confluency, treated with trypsin, and distributed to 96 well microplate in a density of 2×10^4 cells/well. After 24 h, the medium was changed and the compound treatment was carried out in intervals of 2 days by serially diluting the free base of Comparative Example 1 and the maleic acid monosalt of Example by three fold so that the final concentration was 50 μM to 8 nM in 200 μl of medium. Every test samples were duplicated. After 8 days from the first drug treatment, the culture medium was collected, and the cells were lysed by heating the cells to 100° C. for 10 min. In order to minimize the substances that interfere with the DNA amplification reaction, the culture medium was diluted by ten fold using water. The control group, cell culture medium which was not treated with the drug, was treated in the same manner as the above.

HepG2.2.15 = assay: Cytotoxicity determination (MTT); settings: for cytotoxicity: HepG2.2.15
Description: as §2
(§3) CC50 value of the drug was determined by removing the medium, adding 100 μl of 0.1 mg/ml MTT (Thiazolyl Blue Tetrazolium Bromide: Sigma) to the residue, dyeing the residue for 2 h at 37° C., adding 100 μl of DMSO (Dimethyl Sulfoxide: Sigma), dissolving the resulting mixture by agitating for 2 h at room temperature, and measuring the absorbance at 540 nm.

[4] = Cytotoxicity determination (MTT); settings: human
Description: as §2, §3

[5] = Hygroscopicity (no method described); format: physicochemical

Q: What does the source list for `CC(C)(C)C(=O)OCOP(=O)(COC1(Cn2cnc3cnc(N)nc32)CC1)OCOC(=O)C(C)(C)C` [Comparative Example 1, Free Base of 3-[({1-[(2-amino-9H-purin-9-yl)methyl]cyclopropyl}oxy)methyl]-8,8-dimethyl-3,7-dioxo-2,4,6-trioxa-3λ5-phosphanon-1-yl-pivalate]?
A: residual content ([1]; Week 1): 99.0%; residual content ([1]; Week 4): 91.3%; residual content ([1]; Week 8): 8.4%; residual content ([2]; Week 1): 98.2%; residual content ([2]; Week 4): 79.2%; residual content ([2]; Week 8): 1.2%; residual content ([2]; Week 8, listed as free base): about 1%; solubility ([3]; pH 6 or more): ≤ 1000 µg/mL; solubility ([3]; pH of 2 or less): ≥ 36000 µg/mL; solubility ([3]; solution pH 2.0, 25°C): 36500 µg/mL (≈ 69.2 mM); solubility ([3]; solution pH 3.2, 25°C): 8300 µg/mL (≈ 15.7 mM); solubility ([3]; solution pH 4.0, 25°C): 1700 µg/mL (≈ 3.22 mM); solubility ([3]; solution pH 6.5, 25°C): 800 µg/mL (≈ 1.52 mM); EC50 (hepatitis B virus; HepG2.2.15, 8 days, HBV DNA in culture medium, read-out: EC50): 1100 ± 100 nM; cytotoxicity (HepG2.2.15): about 7 m M; CC50 (HepG2.2.15; HepG2.2.15, MTT): 7900 ± 3000 nM

Q: With `CC(C)(C)C(=O)OCOP(=O)(COC1(Cn2cnc3cnc(N)nc32)CC1)OCOC(=O)C(C)(C)C.O=C(O)/C=C\C(=O)O.O=C(O)/C=C\C(=O)O.O=C(O)/C=C\C(=O)O` [Comparative Example 2, 3-[({1-[(2-amino-9H-purin-9-yl)methyl]cyclopropyl}oxy)methyl]-8,8-dimethyl-3,7-dioxo-2,4,6-trioxa-3λ5-phosphanon-1-yl-pivalate maleic acid trisalt] as the compound, how does the residual content ([1]; Week 1) read?
A: The residual content was 84.4%.

Q: What about the residual content ([1]; Week 4) of the same compound?
A: The residual content was 0.0%.

Q: And the residual content ([1]; Week 8)?
A: Its residual content is 0.0%.

Q: What does the source list for `CC(C)(C)C(=O)OCOP(=O)(COC1(Cn2cnc3cnc(N)nc32)CC1)OCOC(=O)C(C)(C)C.Cc1ccc(S(=O)(=O)O)cc1` [Comparative Example 3, 3-[({1-[(2-amino-9H-purin-9-yl)methyl]cyclopropyl}oxy)methyl]-8,8-dimethyl-3,7-dioxo-2,4,6-trioxa-3λ5-phosphanon-1-yl-pivalate p-toluenesulfonic acid monosalt]?
A: residual content ([1]; Week 1): 96.5%; residual content ([1]; Week 4): 71.0%

Q: For `CC(C)(C)C(=O)OCOP(=O)(COC1(Cn2cnc3cnc(N)nc32)CC1)OCOC(=O)C(C)(C)C.Cc1ccc(S(=O)(=O)O)cc1.Cc1ccc(S(=O)(=O)O)cc1` [Comparative Example 4, 3-[({1-[(2-amino-9H-purin-9-yl)methyl]cyclopropyl}oxy)methyl]-8,8-dimethyl-3,7-dioxo-2,4,6-trioxa-3λ5-phosphanon-1-yl-pivalate p-toluenesulfonic acid disalt], which residual content ([1]; Week 1) is on record?
A: The residual content was 0.0%.

Q: What about the residual content ([1]; Week 4) of the same compound?
A: The residual content was 0.0%.

Q: And the residual content ([1]; Week 8)?
A: The residual content was 0.0%.

Q: Which results are given for `CC(C)(C)C(=O)OCOP(=O)(COC1(Cn2cnc3cnc(N)nc32)CC1)OCOC(=O)C(C)(C)C.CS(=O)(=O)O` [Comparative Example 5, 3-[({1-[(2-amino-9H-purin-9-yl)methyl]cyclopropyl}oxy)methyl]-8,8-dimethyl-3,7-dioxo-2,4,6-trioxa-3λ5-phosphanon-1-yl-pivalate methanesulfonic acid monosalt]?
A: residual content ([1]; Week 1): 50.7%; residual content ([1]; Week 4): 0.0%; residual content ([1]; Week 8): 0.0%

Q: For `CC(C)(C)C(=O)OCOP(=O)(COC1(Cn2cnc3cnc(N)nc32)CC1)OCOC(=O)C(C)(C)C.O=S(=O)(O)c1ccc2ccccc2c1` [Comparative Example 6, 3-[({1-[(2-amino-9H-purin-9-yl)methyl]cyclopropyl}oxy)methyl]-8,8-dimethyl-3,7-dioxo-2,4,6-trioxa-3λ5-phosphanon-1-yl-pivalate naphthalenesulfonic acid monosalt], which residual content ([2]; Week 2) is on record?
A: The residual content was 74.7%.

Q: With `CC(C)(C)C(=O)OCOP(=O)(COC1(Cn2cnc3cnc(N)nc32)CC1)OCOC(=O)C(C)(C)C.CCS(=O)(=O)O` [Comparative Example 7, 3-[({1-[(2-amino-9H-purin-9-yl)methyl]cyclopropyl}oxy)methyl]-8,8-dimethyl-3,7-dioxo-2,4,6-trioxa-3λ5-phosphanon-1-yl-pivalate ethanesulfonic acid monosalt] as the compound, how does the residual content ([2]; Week 1) read?
A: The residual content was 0.4%.

Q: Which results are given for `CC(C)(C)C(=O)OCOP(=O)(COC1(Cn2cnc3cnc(N)nc32)CC1)OCOC(=O)C(C)(C)C.O=C(O)/C=C\C(=O)O` [Example, 3-[({1-[(2-amino-9H-purin-9-yl)methyl]cyclopropyl}oxy)methyl]-8,8-dimethyl-3,7-dioxo-2,4,6-trioxa-3λ5-phosphanon-1-yl-pivalate maleic acid monosalt]?
A: residual content ([1]; Week 1): 99.4%; residual content ([1]; Week 4): 99.3%; residual content ([1]; Week 8): 98.3%; residual content ([2]; Week 1): 99.4%; residual content ([2]; Week 4): 99.2%; residual content ([2]; Week 8): 98.2%; thermal stability (decomposition, in words) ([2]; 60°C, stressed condition): remained almost intact without decomposition for up to 8 weeks; solubility relative to the free base ([3]; pH 6.5): three times higher; solubility at 1.5 h ([3]; 25 °C, pH range of 2 to 6.5): 3000 to 7000 µg/mL; solubility at 1.5 h ([3]; solution pH 2.0, 25°C): 5600 µg/mL; solubility at 1.5 h ([3]; solution pH 3.2, 25°C): 7000 µg/mL; solubility at 1.5 h ([3]; solution pH 4.0, 25°C): 4200 µg/mL; solubility at 1.5 h ([3]; solution pH 6.5, 25°C): 2900 µg/mL; EC50 (hepatitis B virus; Hepatitis B virus, HepG2.2.15, 192 h): 1200 ± 300 nM; EC50 (hepatitis B virus; Hepatitis B virus, HepG2.2.15, read-out: activity (in vitro, summary in text)): ~1000 nM; CC50 at 8 days [4]: 6800 ± 2400 nM; cytotoxicity (HepG2.2.15): about 7 m M; hygroscopicity [5]: non-hygroscopic
